Assay results published in US7030265B2, “Retinol derivatives, the method of preparations and the uses thereof” (Chebigen, Inc., priority 2001, dated 2006).

Tests used:
Format in all cases: cell-based
[1] = system: activation protein-1 (AP-1); assay: Activity inhibition test of AP-1, Coll-CAT reporter in HaCAT cells; conditions: c-Jun expression, in the presence of retinoic acid receptor α, CAT ELISA, FIG. 6
Procedure: Since the activation protein-1 (c-Jun is the constituent of AP-1) is transcription factor inducing expression of collagenase enzyme, which is a major cause of skin wrinkle, the effect of wrinkle prevention was determined by the activity inhibition test of AP-1.
CAT reporter (Coll-CAT) containing collagen promoter including AP-1 transcription factor binding site (TRE) were utilized to cotransfect skin cancer (HaCAT) cell line. The effect of retinol derivatives on the activity of AP-1 was measured by CAT ELISA. In some cases, the vector expressing c-Jun or retinoic acid receptors were utilized to cotransfect, and the effect of retinol derivatives on the transcription activity of c-Jun was analyzed.
With the assumption of the prepared retinol-(N-formyl-aspartam) derivatives which inhibit the activity of AP-1 causing skin wrinkle, would have the utility for cosmetics, the related investigations were proceeded. Similar to the experiment of retinoic acid receptor, AP-1 (c-jun) expression vector and Coll-CAT plasmid for the activity measurement were introduced into the skin cancer (HaCAT) cell line with liposome. After treating the cells with retinol-(N-formyl-aspartam) derivatives, the cell extracts were isolated. The expression level of CAT were measured with CAT ELISA to determine the effect of retinol-(N-formyl-aspartam) on the activity of the AP-1.

[2] = system: activation protein-1 (AP-1); assay: Activity inhibition test of AP-1, Coll-CAT reporter in Cos-1 cells; conditions: expression level in the presence of c-Jun expression set as 100%
Excerpt: CAT reporter (Coll-CAT) containing collagen promoter including AP-1 transcription factor binding site (TRE) was utilized to transfect Cos-1 cell line. Activity inhibition tests of activation protein-1 (AP-1) similar to the experimental example 6 were proceeded.

SK-Hep-1 (liver cancer) = assay: Cell toxicity test (living cell count); conditions: SK-Hep-1 cells, 0, 500, 1000, 5000 nM, 4 days, FIG. 1
Procedure: (§1) The cell line utilized for cell toxicity test of retinal derivatives were SK-Hep-1(liver cancer), MDA-MB-231 (breast cancer), HaCAT (skin cancer), and HCT116 (colon cancer). Those cell lines were maintained and cultured in DMEM (Dulbecco's Modified Eagle's Medium)/10% FBS containing 10% fetal bovine serum (FBS) (GibcoBRL, Gaithersburg, Md.). 3×10^3 cells, 100 μl media per well were distribute into 96 well microtiter plate and cultured for 24 hours. Each cultured cell lines were treated with various concentrations of retinal derivatives (0, 500, 1000, 5000 nM) for 4 days and living cells were counted with hemocytometer to measure the inhibition effect of cell proliferation.
(§2) The retinal derivatives utilized for the experiments were retinol-(N-formyl-aspartam), retinol, 4-HPR[N-(4-hydroxyphenyl)retineamide] (Sigma Co., St. Louis, Mo.). Those derivatives were eluted in dimethylsulfoxide and the concentration of dimethylsulfoxide added into culture media was kept at not over 0.01%.

[3] = system: MDA-MB-231 (breast cancer); assay: Cell toxicity test (living cell count); conditions: MDA-MB-231 cells, 0, 500, 1000, 5000 nM, 4 days, FIG. 1
Procedure: as §1, §2

HaCAT (skin cancer) = assay: Cell toxicity test (living cell count); conditions: HaCAT cells, 0, 500, 1000, 5000 nM, 4 days, FIG. 1
Procedure: as §1, §2

HCT116 (colon cancer) = assay: Cell toxicity test (living cell count); conditions: HCT116 cells, 0, 500, 1000, 5000 nM, 4 days, FIG. 1
Procedure: as §1, §2

retinoic acid receptor γ = molecular target: T1, retinoic acid receptor γ (Homo sapiens, UniProt P13631); assay: RAR activity test, DR5-tk-CAT reporter in HaCAT cells; conditions: 1 μM, CAT ELISA, FIG. 2 (A)
T1 construct: expressed in transfected cells; b135 says HaCAT
T1 sequence (P13631 1-454): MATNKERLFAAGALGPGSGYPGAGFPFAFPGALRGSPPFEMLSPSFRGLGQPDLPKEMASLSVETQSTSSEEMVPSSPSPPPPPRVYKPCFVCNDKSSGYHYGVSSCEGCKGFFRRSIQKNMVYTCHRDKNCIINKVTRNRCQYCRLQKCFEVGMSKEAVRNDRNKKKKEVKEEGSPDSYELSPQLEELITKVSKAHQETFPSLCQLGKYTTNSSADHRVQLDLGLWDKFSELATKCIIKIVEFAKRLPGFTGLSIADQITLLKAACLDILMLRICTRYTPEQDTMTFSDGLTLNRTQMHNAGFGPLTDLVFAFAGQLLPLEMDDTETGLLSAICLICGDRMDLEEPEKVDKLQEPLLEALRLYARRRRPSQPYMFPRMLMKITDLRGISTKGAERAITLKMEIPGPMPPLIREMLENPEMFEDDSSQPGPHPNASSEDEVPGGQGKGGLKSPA
Excerpt: To analyze the effects of retinol-(N-formyl-aspartam) on the activity of retinoic acid receptor, skin cancer (HaCAT) cell lines were utilized to measure the activity of retinoic acid receptor/retinoid X receptor.
Recombinant DNA, DR5-tk-CAT or DR1-tk-CAT consisting of DR1 or DR5, effectors of retinoic acid receptor/retinoid X receptor, thymine kinase promoter, and CAT(chloramphenicol acetyl transferase) were mixed with the plasmid DNA expressing retinoic acid receptor α, β, ? or retinoid X receptor α, β, ? to cotransfect skin cancer (HaCAT) cell line with lipofectamine (GibcoBRL). The cotransfected cell lines were cultured for 1 day on DMEM/10% FBS media, each retinol derivatives (1 μM) were added and cultured for one more day, 5% CO2, 37° C. The cells were washed with phosphate-buffered saline (PBS), and the proteins were isolated from each cells, and the activity of β-galactosidase and protein contents were measured to determine transfection efficacy, the transcription level of RAR or RXR receptor were measured with CAT ELISA (Roche Molecular Biochemical, Mannheim, Germany).
To determine the effect of retinol-(N-formyl-aspartam) on retinoic acid receptors, each retinoic acid receptor (α, β, or ? ) expression vector and activity measuring DR5-tk-CAT plasmid were introduced with liposome. After treating cells with retinol-(N-formyl-aspartam), the cell extracts were isolated. The expression level of CAT were measured with CAT ELISA to determine the effect of retinol-(N-formyl-aspartam) on the activity of retinoic acid receptors.

`COC(=O)C(Cc1ccccc1)NC(=O)[C@H](CC(=O)OC/C=C(C)/C=C/C=C(C)/C=C/C1=C(C)CCCC1(C)C)NC=O` (stereo partly drawn) [retinol-(N-formyl-aspartam), (2E,4E,6E,8E)-3,7-dimethyl-9-(2,6,6-trimethyl-1-cyclohexenyl)-2,4,6,8-nonatetraenyl(3S)-4-[(1-benzyl-2-methoxy-2-oxoethyl)amino]-3-formylamino-4-oxobutanoate] was tested, and the “lowered the expression of collagenase (Coll-CAT)” value [1] was about 44%, the “lowered the expression of collagenase (Coll-CAT)” value [2] was “approximately 42%” and the “cell toxicity (inhibition of cell proliferation)” value (SK-Hep-1 (liver cancer)) was “no toxicity”. For the same molecule, the “cell toxicity (inhibition of cell proliferation)” value [3] was “no toxicity”, the “cell toxicity (inhibition of cell proliferation)” value (HaCAT (skin cancer)) was “no toxicity” and the “cell toxicity (inhibition of cell proliferation)” value (HCT116 (colon cancer)) was “less toxicity than retinol”. The “activation of retinoic acid receptor γ” value (retinoic acid receptor γ) was “weak activation”.
